Laboratory results published in paper PMC3906059, “Activation and Inhibition of TMEM16A Calcium-Activated Chloride Channels” (PLoS ONE, 2014).
Several values for one entry are separate records, joined by “and”; a condition that tells them apart may be missing. Identical values can stand only once. Entries after “also recorded” stand apart in the source; their conditions may differ.

What was measured:
[1] = molecular target: T1, TMEM16A (ANO1) (Mus musculus, UniProt Q8BHY3); experiment: Anion permeability of the ANO1 pore, Erev under bi-ionic conditions; assay type: cell-based; settings: for permeability ratio PX/PCl: Ca^2+-activated current, calculated from Erev after junction potential correction; for zero current potential of I–V curve: example ramp −80 to +80 mV, [Ca^2+] = 20 µM, intracellular salt 140 mM (NaHCO3 130 mM + 10 mM NaCl)
T1 construct: We subcloned the coding region of the cDNA into pEGFP-N3 vector; expressed in transfected cells; host or cells: HEK293 cells
T1 sequence (Q8BHY3 1-956 isoform Q8BHY3-2): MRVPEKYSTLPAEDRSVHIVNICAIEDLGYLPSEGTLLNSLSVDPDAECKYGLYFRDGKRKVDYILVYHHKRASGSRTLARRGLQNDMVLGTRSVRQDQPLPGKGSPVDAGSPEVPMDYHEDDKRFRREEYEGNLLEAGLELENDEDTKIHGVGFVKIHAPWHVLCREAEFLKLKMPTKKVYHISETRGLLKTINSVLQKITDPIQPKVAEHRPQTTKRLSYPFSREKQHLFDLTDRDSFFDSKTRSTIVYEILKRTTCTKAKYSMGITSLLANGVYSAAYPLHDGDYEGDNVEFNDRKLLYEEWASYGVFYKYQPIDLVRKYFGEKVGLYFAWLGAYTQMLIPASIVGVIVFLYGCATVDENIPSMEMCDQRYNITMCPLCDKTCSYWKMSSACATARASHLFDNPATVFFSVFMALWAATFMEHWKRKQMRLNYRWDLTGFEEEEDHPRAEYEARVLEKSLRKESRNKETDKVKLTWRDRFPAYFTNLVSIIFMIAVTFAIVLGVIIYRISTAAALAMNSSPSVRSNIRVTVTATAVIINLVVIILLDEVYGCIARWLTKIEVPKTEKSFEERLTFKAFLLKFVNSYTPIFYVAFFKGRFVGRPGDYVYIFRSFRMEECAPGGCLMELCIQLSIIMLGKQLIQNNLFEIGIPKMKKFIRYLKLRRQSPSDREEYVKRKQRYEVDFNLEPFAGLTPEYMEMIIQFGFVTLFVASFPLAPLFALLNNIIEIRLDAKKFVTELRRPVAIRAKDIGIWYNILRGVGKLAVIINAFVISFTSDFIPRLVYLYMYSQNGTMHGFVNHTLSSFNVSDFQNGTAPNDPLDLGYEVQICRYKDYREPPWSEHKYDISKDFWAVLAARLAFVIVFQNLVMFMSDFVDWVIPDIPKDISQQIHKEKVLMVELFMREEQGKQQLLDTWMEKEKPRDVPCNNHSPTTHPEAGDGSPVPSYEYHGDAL
Description: (§1) The mouse TMEM16A cDNA (NCBI reference sequence: NM_001242349.1) encoding ANO1 CaCC was a generous gift from Dr. Lily Jan. We subcloned the coding region of the cDNA into pEGFP-N3 vector (Clontech Laboratories, Inc.), resulting in a construct in which an enhanced green fluorescent protein (eGFP) was attached to the C-terminus of the ANO1 protein. The sequence was confirmed by commercially-available DNA sequencing service. This eGFP-attached ANO1 cDNA construct was used for channel expression throughout the study. The cDNA was transfected into human embryonic kidney (HEK) 293 cells using lipofectamine transfection methods, [42], [43]. A fluorescent light source and a GFP filter set (Chroma Technology Co.) in the DM IRB inverted microscope (Leica Microsystems) were used to identify transfected cells expressing channel proteins. Electrophysiological experiments were performed ∼24 to 72 hours after transfection.
The anion permeability of the ANO1 pore was examined under bi-ionic conditions in which the extracellular solution contained 140 mM NaCl (the zero-Ca^2+ solution). The intracellular solution contained 140 mM sodium salts of various anions with the exception of the HCO3 ^− experiment in which the solution contained 130 mM NaHCO3 and 10 mM NaCl. In all intracellular solutions for the bi-ionic experiments, 0.1 mM EGTA and 0.12 mM total Ca^2+ or Sr^2+ were added to the solution to activate the ANO1 channel (Free [Ca^2+] or [Sr^2+] were saturating concentrations). Erev of the open channel was measured in two ways. First, under voltage-clamp configuration, a 3-sec voltage ramp from −80 mV to +80 mV was applied and the Erev of the leak-subtracted I-V curve was then determined (see Fig. 5 A & B). The second method employed the current-clamp (I = 0) mode in which the patch was exposed to divalent cations throughout the recording (Fig. 5 C and Fig. 6 A & C). When the intracellular solution contained the same concentration of Cl^− as that in the extracellular side, the recorded voltage (EI = 0) was normally close to 0 mV. When the intracellular solution was replaced by the one containing other anions, the value of EI = 0 changed to a new value corresponding to the Erev of the new ionic condition. It is important to point out that the measurement of Erev can be imprecise if the amplitude of the ANO1 current is not within a proper range. Therefore, in permeability ratio measurements we only used the data obtained from patches with a maximal current in the range of 100 pA–1000 pA at +40 mV. All the presented Erev values (and the recording traces for measuring Erev) are not corrected for junction potential difference between solutions because the junction potentials are relatively small. However, the reported permeability ratios were calculated based on the junction potential-corrected Erev. The correction for the junction potential results in very small changes in the calculated permeability ratios.
The permeability ratios of various anions versus Cl^− (PX/PCl, where X represents various anions) were calculated using the Erev obtained from bi-ionic experiments according to the following equation (eq. 3), PX/PCl = exp[Erev/(RT/F)], where R, T, and F are the gas constant, absolute temperature, and Faraday constant, respectively. Comparing the difference between Erev’s of the Ca^2+- and Sr^2+-activated current was performed using the pair t test at the significant level of 0.05.

[2] = molecular target: T1, TMEM16A (ANO1); experiment: Activation of ANO1 current by divalent cations, excised inside-out patch with fast solution exchange; assay type: cell-based
Description: as §1
All chemicals were reagent grade. Regular salts (such as NaCl, NaOH, CaCl2, SrCl2, BaCl2, MgCl2 or sodium salts of various anions) were purchased from Fisher Chemicals (Fair Lawn, NJ), J. T. Baker (Phillipsburg, NJ) or Sigma Chemicals Co. (St. Louis, MO). EGTA, HEPES, and NFA were from Sigma Chemicals Co. Excised inside-out patch-clamp recordings were performed throughout the study. The extracellular (pipette) solution in all experiments contained: 140 mM NaCl, 10 mM HEPES, 0.1 mM EGTA, pH = 7.4. The regular intracellular solution contained 10 mM HEPES and 140 mM sodium salt of Cl^− or other anions. Various concentrations of divalent cations were made by adding certain total concentrations of divalent cations (Cl^− salts) into the solution containing a defined concentration of EGTA. We defined the pipette solution as the “zero-Ca^2+” solution. A solution containing a saturating [Ca^2+] was made by adding 0.12 mM total [Ca^2+] into the aforementioned zero-Ca^2+ solution, resulting in a solution containing ∼20 µM free [Ca^2+]. For making non-saturating [Ca^2+] solutions, the solutions included 1 mM EGTA. To make solutions containing Sr^2+ and Ba^2+, only 0.1 mM EGTA was used. The pH of all solutions was adjusted to 7.4.
Because of weak Mg^2+-EGTA binding, we referred the total [Mg^2+] as the free [Mg^2+]. The free [Ca^2+], [Sr^2+], and [Ba^2+] were calculated using the MaxChelator program (Ver1.2) kindly provided by Chris Patton from the Stanford University. This program was developed based on the binding constants available in the National Institute of Standard and Technology (NIST) between EGTA and these three divalent cations. Table S1, Table S2, and Table S3 list respectively the calculated free [Ca^2+], [Sr^2+], and [Ba^2+] used in this study. All added divalent cations were Cl^− salts. […] For example, in a solution containing 5 mM, 10 mM or 30 mM MgCl2, only 130 mM, 120 mM or 80 mM of NaCl, respectively, were added to the solution.
The patch-clamp recording pipettes were fabricated from borosilicate glass capillaries (World Precision Instruments) using PP830 electrode puller (Narishige International). When filled with the pipette solution, the electrode resistance was ∼1.5–3 MΩ. The experiments were carried out at room temperature (20–23°C) using the Axopatch 200B amplifier controlled by the Digidata I/O converter and the pClamp9 software (Axon Instruments/Molecular Devices).
Solution exchange was achieved using the SF-77 solution exchanger (Warner Instruments). After the excised inside-out patch mode was established, the tip of the patch pipette was positioned at the exit of the solution-delivery pipes of the SF-77 solution exchanger. The switch of solution pipes was controlled by a digital signal delivered from the Digidata 1320 digitizing board. […]

[3] = test system: CaCC of Xenopus oocytes; parameters: method as in PMID 11279188; settings: cited from earlier work
[4] = Ca^2+-activated current (20 µM), 140 mM extracellular NaCl, anion as intracellular sodium salt 140 mM (HCO3: 130 mM NaHCO3 + 10 mM NaCl), without junction potential correction, averaged
[5] = current activated by 20 µM Sr^2+, current clamp (I = 0), without correcting for junction potential

Erev (bi-ionic potential) [1, 4] [mV] | permeability ratio PX/PCl [1] | zero current potential of I–V curve ([1]; 140 mM extracellular NaCl) | Compound | Erev (bi-ionic potential) [1, 5] [mV] | further results
 |  |  | [Cl-].[Cl-].[Sr+2] [Sr^2+] |  | difference of Erev between channels activated by Sr^2+ and Ca^2+ [1]: 1–2 mV; maximal ANO1 current activated by saturating divalent cation compared with Is induced by saturating [Ca^2+] ([2]; Is induced by 20 µM Ca^2+, ±40 mV): can activate the same maximal current; also recorded: activated the channel to the same maximal current level; Hill coefficient (n) of dose-response activation curve ([2]; values covering +40 and −40 mV): 2–2.6 and ~2; EC50 ([2]; values covering +40 and −40 mV, read-out: K1/2 of ANO1 activation): 5 to 10 µM and ~5 µM
−27.6±2.4 | ~0.3 | -27 mV | O=C([O-])O.[Na+] [HCO3 ^−] |  | 
 |  |  | O=S(=O)(O)c1cc(N=C=S)ccc1C=Cc1ccc(N=C=S)cc1S(=O)(=O)O [DIDS] |  | voltage dependence of inhibition [3]: voltage dependent
18.0±1.2 | ~2.1 | +17 mV | [Br-].[Na+] [Br^−] | 16.2±0.4 | 
< −80 |  |  | N[C@@H](CCC(=O)O)C(=O)[O-].[Na+] [glutamate, Na-glutamate] |  | 

Compound | Erev (bi-ionic potential) [1, 4] [mV] | permeability ratio PX/PCl [1] | zero current potential of I–V curve ([1]; 140 mM extracellular NaCl) | Erev (bi-ionic potential) [1, 5] [mV] | further results
O=[N+]([O-])[O-].[Na+] [NO3 ^−] | 32.9±1.1 | ~3.5 | +33 mV | 31.3±0.5 | 
